Our source for the IC50 values is patent US10519152B2, “Compounds and their use in treating cancer” (AstraZeneca AB, priority 2017, dated 2019).

The target in this test is T1, recombinant human Estrogen Receptor alpha ligand binding domain, residues 307-554 (ER alpha-LBD (GST)) (Homo sapiens, UniProt P03372).
T1 construct: made in house
T1 sequence (P03372 307-554): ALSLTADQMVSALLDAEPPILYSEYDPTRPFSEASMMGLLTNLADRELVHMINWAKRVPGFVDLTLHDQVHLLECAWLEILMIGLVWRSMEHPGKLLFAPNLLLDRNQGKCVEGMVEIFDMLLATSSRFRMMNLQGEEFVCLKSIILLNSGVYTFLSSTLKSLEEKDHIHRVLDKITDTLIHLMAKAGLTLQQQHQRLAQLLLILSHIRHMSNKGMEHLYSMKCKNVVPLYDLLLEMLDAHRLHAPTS
Description: ERα binding assay (LanthaScreen TR-FRET competition). Conditions: TR-FRET competition with Fluormone ES2 tracer, 4 hours at room temperature; single experiment or average of two or more. For orientation: In TR-FRET formats the signal depends on donor and acceptor labels being close together.
In the case of `Cc1ncsc1-c1ccc([C@H](C)NC(=O)[C@@H]2C[C@@H](O)CN2C(=O)[C@@H](NC(=O)COCCCOCCCCCOc2cc(F)c([C@@H]3c4[nH]c5ccccc5c4C[C@@H](C)N3CC(C)(C)F)c(F)c2)C(C)(C)C)cc1` [Example 137, (2S,4R)-1-((S)-2-(2-(3-((5-(3,5-Difluoro-4-((R,3R)-2-(2-fluoro-2-methylpropyl)-3-methyl-2,3,4,9-tetrahydro-1H-pyrido[3,4-b]indol-1-yl)phenoxy)pentyl)oxy)propoxy)acetamido)-3,3-dimethylbutanoyl)-4-hydroxy-N—((S)-1-(4-(4-methylthiazol-5-yl)phenyl)ethyl)pyrrolidine-2-carboxamide], the IC50 came to 800 pM. On to `Cc1ncsc1-c1ccc([C@H](C)NC(=O)[C@@H]2C[C@@H](O)CN2C(=O)[C@@H](NC(=O)COCCCOCCCOc2cc(F)c([C@@H]3c4[nH]c5ccccc5c4C[C@@H](C)N3CC(C)(C)F)c(F)c2)C(C)(C)C)cc1` [Example 152, (2S,4R)-1-((S)-2-(2-(3-(3-(3,5-Difluoro-4-((1R,3R)-2-(2-fluoro-2-methylpropyl)-3-methyl-2,3,4,9-tetrahydro-1H-pyrido[3,4-b]indol-1-yl)phenoxy)propoxy)propoxy)acetamido)-3,3-dimethylbutanoyl)-4-hydroxy-N—((S)-1-(4-(4-methylthiazol-5-yl)phenyl)ethyl)pyrrolidine-2-carboxamide], for which the half-inhibitory concentration (IC50) is 500 pM. For `Cc1ncsc1-c1ccc(CNC(=O)[C@@H]2C[C@@H](O)CN2C(=O)[C@@H](NC(=O)CNCCCCCCCCOc2cc(F)c([C@@H]3c4[nH]c5ccccc5c4C[C@@H](C)N3CC(C)(C)F)c(F)c2)C(C)(C)C)cc1` [Example 147, (2S,4R)-1-((S)-2-(2-((8-(3,5-Difluoro-4-((1R,3R)-2-(2-fluoro-2-methylpropyl)-3-methyl-2,3,4,9-tetrahydro-1H-pyrido[3,4-b]indol-1-yl)phenoxy)octyl)amino)acetamido)-3,3-dimethylbutanoyl)-4-hydroxy-N-(4-(4-methylthiazol-5-yl)benzyl)pyrrolidine-2-carboxamide] the value was 1000 pM; for `Cc1ncsc1-c1ccc(CNC(=O)[C@@H]2C[C@@H](O)CN2C(=O)[C@@H](NC(=O)CCCCOCCCCCOc2cc(F)c([C@@H]3c4[nH]c5ccccc5c4C[C@@H](C)N3CC(C)(C)F)c(F)c2)C(C)(C)C)cc1` [Example 113, (2S,4R)-1-((S)-2-(5-((5-(3,5-Difluoro-4-((1R,3R)-2-(2-fluoro-2-methylpropyl)-3-methyl-2,3,4,9-tetrahydro-1H-pyrido[3,4-b]indol-1-yl)phenoxy)pentyl)oxy)pentanamido)-3,3-dimethylbutanoyl)-4-hydroxy-N-(4-(4-methylthiazol-5-yl)benzyl)pyrrolidine-2-carboxamide], 600 pM; for `Cc1ncsc1-c1ccc(CNC(=O)[C@@H]2C[C@@H](O)CN2C(=O)[C@@H](NC(=O)COCCCCCCOc2ccc([C@@H]3c4[nH]c5ccccc5c4C[C@@H](C)N3CC(F)F)nc2)C(C)(C)C)cc1` [Example 8, (2S,4R)-1-((S)-2-(2-((6-((6-((1S,3R)-2-(2,2-Difluoroethyl)-3-methyl-2,3,4,9-tetrahydro-1H-pyrido[3,4-b]indol-1-yl)pyridin-3-yl)oxy)hexyl)oxy)acetamido)-3,3-dimethylbutanoyl)-4-hydroxy-N-(4-(4-methylthiazol-5-yl)benzyl)pyrrolidine-2-carboxamide], 6800 pM. For `Cc1ncsc1-c1ccc(CNC(=O)[C@@H]2C[C@@H](O)CN2C(=O)[C@@H](NC(=O)COCCOCCC(F)(F)CCOc2cc(F)c([C@@H]3c4[nH]c5ccccc5c4C[C@@H](C)N3CC(C)(C)F)c(F)c2)C(C)(C)C)cc1` [Example 127, (2S,4R)-1-((S)-2-(2-(2-((5-(3,5-Difluoro-4-((R,3R)-2-(2-fluoro-2-methylpropyl)-3-methyl-2,3,4,9-tetrahydro-1H-pyrido[3,4-b]indol-1-yl)phenoxy)-3,3-difluoropentyl)oxy)ethoxy)acetamido)-3,3-dimethylbutanoyl)-4-hydroxy-N-(4-(4-methylthiazol-5-yl)benzyl)pyrrolidine-2-carboxamide] the value was 500 pM; for `Cc1ncsc1-c1ccc(CNC(=O)[C@@H]2C[C@@H](O)CN2C(=O)[C@@H](NC(=O)COCCCCC(=O)N(C)CCOc2cc(F)c([C@@H]3c4[nH]c5ccccc5c4C[C@@H](C)N3CC(C)(C)F)c(F)c2)C(C)(C)C)cc1` [Example 143, (2S,4R)-1-((S)-2-(2-((5-((2-(3,5-Difluoro-4-((1R,3R)-2-(2-fluoro-2-methylpropyl)-3-methyl-2,3,4,9-tetrahydro-1H-pyrido[3,4-b]indol-1-yl)phenoxy)ethyl)(methyl)amino)-5-oxopentyl)oxy)acetamido)-3,3-dimethylbutanoyl)-4-hydroxy-N-(4-(4-methylthiazol-5-yl)benzyl)pyrrolidine-2-carboxamide], 1100 pM. As for `Cc1ncsc1-c1ccc(CNC(=O)[C@@H]2C[C@@H](O)CN2C(=O)[C@@H](NC(=O)COCCCCCN(CCOc2cc(F)c([C@@H]3c4[nH]c5ccccc5c4C[C@@H](C)N3CC(C)(C)F)c(F)c2)C(=O)OCc2ccccc2)C(C)(C)C)cc1` [Example 45, Benzyl (2-(3,5-difluoro-4-((1R,3R)-2-(2-fluoro-2-methylpropyl)-3-methyl-2,3,4,9-tetrahydro-1H-pyrido[3,4-b]indol-1-yl)phenoxy)ethyl)(5-(2-(((S)-1-((2S,4R)-4-hydroxy-2-((4-(4-methylthiazol-5-yl)benzyl)carbamoyl)pyrrolidin-1-yl)-3,3-dimethyl-1-oxobutan-2-yl)amino)-2-oxoethoxy)pentyl)carbamate], the figure is 1200 pM; as for `Cc1ncsc1-c1ccc(CNC(=O)[C@@H]2C[C@@H](O)CN2C(=O)[C@@H](NC(=O)CCCc2ccc(COc3cc(F)c([C@@H]4c5[nH]c6ccccc6c5C[C@@H](C)N4CC(C)(C)F)c(F)c3)nc2)C(C)(C)C)cc1` [Example 141, (2S,4R)-1-((S)-2-(4-(6-((3,5-Difluoro-4-((1R,3R)-2-(2-fluoro-2-methylpropyl)-3-methyl-2,3,4,9-tetrahydro-1H-pyrido[3,4-b]indol-1-yl)phenoxy)methyl)pyridin-3-yl)butanamido)-3,3-dimethylbutanoyl)-4-hydroxy-N-(4-(4-methylthiazol-5-yl)benzyl)pyrrolidine-2-carboxamide], 1200 pM. For the compound `Cc1ncsc1-c1ccc([C@H](C)NC(=O)[C@@H]2C[C@@H](O)CN2C(=O)[C@@H](NC(=O)CCOCCCCCCCOc2cc(F)c([C@@H]3c4[nH]c5ccccc5c4C[C@@H](C)N3CC(C)(C)F)c(F)c2)C(C)(C)C)cc1` [Example 114, (2S,4R)-1-((S)-2-(3-((7-(3,5-difluoro-4-((1R,3R)-2-(2-fluoro-2-methylpropyl)-3-methyl-2,3,4,9-tetrahydro-1H-pyrido[3,4-b]indol-1-yl)phenoxy)heptyl)oxy)propanamido)-3,3-dimethylbutanoyl)-4-hydroxy-N—((S)-1-(4-(4-methylthiazol-5-yl)phenyl)ethyl)pyrrolidine-2-carboxamide], the IC50 amounted to 900 pM.

The term IC50 denotes the concentration that inhibits the measured activity by half.
